Our source for the IC50 values is BindingDB's records for doi:10.1016/j.bmcl.2007.04.053 (Merck Research Laboratories, 2007).

Structures are written as SMILES.

This assay in a line: Inhibition of chemotaxis in human MCP1 monocytes.
For orientation: IC50 means the concentration needed to halve the response being measured. Lower therefore signals greater potency in that assay. As to `CC(C)C[C@]1(C(=O)NCc2cc(F)cc(C(F)(F)F)c2)CC[C@@H](N2CC[C@]3(C=Cc4ccccc43)[C@@H](C)C2)C1` [(1R,3R)-N-{[3-fluoro-5-(trifluoromethyl)phenyl]methyl}-1-(2-methylpropyl)-3-[(1S,5'R)-5'-methylspiro[indene-1,4'-piperidine]-1'-yl]cyclopentane-1-carboxamide], the IC50 is 0.32 nM.

In the case of `CC(C)[C@]1(C(=O)NCc2cc(F)cc(C(F)(F)F)c2)CC[C@@H](N2CC[C@]3(C=Cc4ccccc43)[C@@H](C)C2)C1` [(1S,3R)-N-{[3-fluoro-5-(trifluoromethyl)phenyl]methyl}-3-[(1S,5'R)-5'-methylspiro[indene-1,4'-piperidine]-1'-yl]-1-(propan-2-yl)cyclopentane-1-carboxamide], the IC50 is 0.15 nM. This IC50 is about 2.1-fold lower than that of the compound before. Then `C[C@H]1CN([C@@H]2CC[C@@](C(=O)NCc3cc(F)cc(C(F)(F)F)c3)(C3CC3)C2)CC[C@]12C=Cc1ccccc12` [(1S,3R)-1-cyclopropyl-N-{[3-fluoro-5-(trifluoromethyl)phenyl]methyl}-3-[(1S,5'R)-5'-methylspiro[indene-1,4'-piperidine]-1'-yl]cyclopentane-1-carboxamide], with 0.23 nM.
